From US10947188B2, “Small molecule ferroptosis inducers” (THE TRUSTEES OF COLUMBIA UNIVERSITY IN THE CITY OF NEW YORK, priority 2016, dated 2021)
Read-outs that look alike come from different tables or passages of the source.

What was measured:
[1] = system: HT-1080; experiment: Modulatory profiling: Alamar Blue viability, lethal compound cotreated with death modulator (EC50, AUC); assay type: cell-based; set-up: AUC, modulator HT.3MA / AUC, modulator HT.ALLN / AUC HT.ATA / AUC HT.ActD / AUC HT.BHA / AUC HT.BHT / AUC HT.BocD / AUC HT.CHX / AUC HT.Co2+ / AUC HT.DPQ / AUC HT.EGTA / AUC HT.Lmim / AUC HT.NAD+ / AUC HT.Nec-1 / AUC HT.SP600125 / AUC HT.TLCK / AUC HT.U0126: unit not given beside the values; conditions: for AUC HT.ATA: HT-1080, modulator ATA; for AUC HT.ActD: HT-1080, modulator ActD; for AUC HT.BHA: HT-1080, modulator BHA; for AUC HT.BHT: HT-1080, modulator BHT; for AUC HT.BocD: HT-1080, modulator BocD; for AUC HT.CHX: HT-1080, modulator CHX; for AUC HT.Co2+: HT-1080, modulator Co2+; for AUC HT.CspA: HT-1080, modulator CspA; for AUC HT.DPQ: HT-1080, modulator DPQ; for AUC HT.Gd3+: HT-1080, modulator Gd3+; for AUC HT.LNAME: HT-1080, modulator LNAME; for AUC HT.Lmim: HT-1080, modulator Lmim; for AUC HT.NAD+: HT-1080, modulator NAD+; for AUC HT.NMMA: HT-1080, modulator NMMA; for AUC HT.Nec-1: HT-1080, modulator Nec-1; for AUC HT.Pepstatin: HT-1080, modulator Pepstatin; for AUC HT.SP600125: HT-1080, modulator SP600125; for AUC HT.TLCK: HT-1080, modulator TLCK; for AUC HT.U0126: HT-1080, modulator U0126; for HT.atoc (AUC) / HT.bCarotene (AUC) / HT.deferox (AUC) / HT.digoxin (AUC) / HT.trolox (AUC) / HT.zVAD (AUC): HT-1080; for HT.atoc (AUC): modulator atoc; for HT.bCarotene (AUC): modulator bCarotene; for HT.deferox (AUC): modulator deferox; for HT.digoxin (AUC): modulator digoxin; for HT.trolox (AUC): modulator trolox; for HT.zVAD (AUC): modulator zVAD; for AUC, modulator HT.3MA / AUC, modulator HT.ALLN: HT-1080 cells, modulatory profile value (AUC); for AUC, modulator HT.3MA: lethal compound cotreated with modulator 3MA; for AUC, modulator HT.ALLN: lethal compound cotreated with modulator ALLN; on AUC HT.BHA: reference of the scale not given here; on AUC HT.EGTA: reference of the scale not given here
[2] = system: BJeLR; experiment: as above; assay type: cell-based, human; set-up: AUC, modulator BJ.Gd3+ / AUC, modulator BJ.LNAME / AUC, modulator BJ.Lmin / AUC, modulator BJ.3MA / AUC, modulator BJ.ALLN / AUC, modulator BJ.Boc D / AUC, modulator BJ.CHX / AUC, modulator BJ.Co2+ / AUC, modulator BJ.Nec-1 / AUC, modulator BJ.Pepstatin / AUC, modulator BJ.TLCK / AUC, modulator BJ.atoc / AUC, modulator BJ.trolox / AUC, modulator BJ.zVAD: unit not given beside the values; conditions: BJeLR cells, modulatory profile value (AUC); for AUC, modulator BJ.3MA: lethal compound cotreated with modulator 3MA; for AUC, modulator BJ.ALLN: lethal compound cotreated with modulator ALLN; for AUC, modulator BJ.Boc D: lethal compound cotreated with modulator Boc D; for AUC, modulator BJ.CHX: lethal compound cotreated with modulator CHX; for AUC, modulator BJ.Co2+: lethal compound cotreated with modulator Co2+; for AUC, modulator BJ.DPQ: lethal compound cotreated with modulator DPQ; for AUC, modulator BJ.Gd3+: lethal compound cotreated with modulator Gd3+; for AUC, modulator BJ.LNAME: lethal compound cotreated with modulator LNAME; for AUC, modulator BJ.Lmin/NAD+: lethal compound cotreated with modulator Lmin/NAD+; for AUC, modulator BJ.Lmin: lethal compound cotreated with modulator Lmin; for AUC, modulator BJ.NAD+: lethal compound cotreated with modulator NAD+; for AUC, modulator BJ.NMMA: lethal compound cotreated with modulator NMMA; for AUC, modulator BJ.Nec-1: lethal compound cotreated with modulator Nec-1; for AUC, modulator BJ.Pepstatin: lethal compound cotreated with modulator Pepstatin; for AUC, modulator BJ.TLCK: lethal compound cotreated with modulator TLCK; for AUC, modulator BJ.atoc: lethal compound cotreated with modulator atoc; for AUC, modulator BJ.trolox: lethal compound cotreated with modulator trolox; for AUC, modulator BJ.zVAD: lethal compound cotreated with modulator zVAD; on AUC, modulator BJ.3MA: reference of the scale not given here; on AUC, modulator BJ.ALLN: reference of the scale not given here; on AUC, modulator BJ.Boc D: reference of the scale not given here; on AUC, modulator BJ.CHX: reference of the scale not given here; on AUC, modulator BJ.Co2+: reference of the scale not given here; on AUC, modulator BJ.DPQ: reference of the scale not given here; on AUC, modulator BJ.Gd3+: reference of the scale not given here; on AUC, modulator BJ.LNAME: reference of the scale not given here; on AUC, modulator BJ.NAD+: reference of the scale not given here; on AUC, modulator BJ.NMMA: reference of the scale not given here; on AUC, modulator BJ.Nec-1: reference of the scale not given here; on AUC, modulator BJ.Pepstatin: reference of the scale not given here; on AUC, modulator BJ.TLCK: reference of the scale not given here

## COc1cc2c(c(OC)c1OC)-c1ccc(OC)c(=O)cc1[C@@H](NC(C)=O)CC2 [Colchicine]
[1]
  AUC HT.ATA: 0.1325
  AUC HT.ActD: 0.01343
  AUC HT.BHA: 0.01506
  AUC HT.BHT: −0.006747
  AUC HT.BocD: 0.1264
  AUC HT.CHX: 0.04333
  AUC HT.Co2+: 0.1098
  AUC HT.CspA: −0.1209
  AUC HT.DPQ: 0.01511
  AUC HT.Gd3+: 0.01351
  AUC HT.LNAME: 0.008236
  AUC HT.Lmim: 0.1199
  AUC HT.NAD+: 0.1471
  AUC HT.NMMA: 0.008585
  AUC HT.Nec-1: 0.01661
  AUC HT.Pepstatin: 0.004413
  AUC HT.SP600125: −0.02858
  AUC HT.TLCK: 0.0306
  AUC HT.U0126: 0.2237
  HT.atoc (AUC): −0.0173
  HT.bCarotene (AUC): 0.01723
  HT.deferox (AUC): 0.2984
  HT.digoxin (AUC): 0.1359
  HT.trolox (AUC): 0.01591
  HT.zVAD (AUC): 0.134
  AUC, modulator HT.3MA: 0.01861
  AUC, modulator HT.ALLN: 0.1932
[1]; HT-1080, modulator EGTA
  AUC HT.EGTA: −0.000119
[2]
  AUC, modulator BJ.3MA: 0.003026
  AUC, modulator BJ.ALLN: −0.03356
  AUC, modulator BJ.Boc D: −0.0009082
  AUC, modulator BJ.CHX: 0.161
  AUC, modulator BJ.Co2+: 0.1688
  AUC, modulator BJ.DPQ: −0.03053
  AUC, modulator BJ.Gd3+: −0.01061
  AUC, modulator BJ.LNAME: −0.008548
  AUC, modulator BJ.Lmin/NAD+: 0.1409
  AUC, modulator BJ.Lmin: 0.05808
  AUC, modulator BJ.NAD+: 0.1128
  AUC, modulator BJ.NMMA: −0.005221
  AUC, modulator BJ.Nec-1: −0.04443
  AUC, modulator BJ.Pepstatin: 0.003669
  AUC, modulator BJ.TLCK: −0.01338
  AUC, modulator BJ.atoc: −0.02812
  AUC, modulator BJ.trolox: −0.004229
  AUC, modulator BJ.zVAD: 0.05702

## COc1cccc2c1C(=O)c1c(O)c3c(c(O)c1C2=O)C[C@@](O)(C(C)=O)C[C@@H]3O[C@H]1C[C@H](N)[C@H](O)[C@H](C)O1 [Daunorubicin]
[1]
  AUC HT.EGTA: 0.03262
  AUC HT.ATA: −0.00186
  AUC HT.ActD: 0.01442
  AUC HT.BHA: 0.0107
  AUC HT.BHT: −0.05609
  AUC HT.BocD: 0.0522
  AUC HT.CHX: 0.05854
  AUC HT.Co2+: 0.1614
  AUC HT.CspA: −0.0792
  AUC HT.DPQ: 0.008882
  AUC HT.Gd3+: 0.01529
  AUC HT.LNAME: −0.009852
  AUC HT.Lmim: 0.06112
  AUC HT.NAD+: 0.1305
  AUC HT.NMMA: 0.0183
  AUC HT.Nec-1: 0.02174
  AUC HT.Pepstatin: 0.005649
  AUC HT.SP600125: −0.0113
  AUC HT.TLCK: 0.06429
  AUC HT.U0126: −0.0159
  HT.atoc (AUC): 0.009895
  HT.bCarotene (AUC): 0.008265
  HT.deferox (AUC): 0.1515
  HT.digoxin (AUC): 0.1398
  HT.trolox (AUC): −0.002722
  HT.zVAD (AUC): 0.04455
  AUC, modulator HT.3MA: 0.02823
  AUC, modulator HT.ALLN: 0.008692
[2]
  AUC, modulator BJ.3MA: 0.03793
  AUC, modulator BJ.ALLN: 0.02846
  AUC, modulator BJ.Boc D: 0.03322
  AUC, modulator BJ.CHX: 0.1497
  AUC, modulator BJ.Co2+: 0.2122
  AUC, modulator BJ.DPQ: −0.03527
  AUC, modulator BJ.Gd3+: −0.005247
  AUC, modulator BJ.LNAME: 0.005526
  AUC, modulator BJ.Lmin/NAD+: 0.1434
  AUC, modulator BJ.Lmin: 0.05475
  AUC, modulator BJ.NAD+: 0.1226
  AUC, modulator BJ.NMMA: −0.01867
  AUC, modulator BJ.Nec-1: −0.02055
  AUC, modulator BJ.Pepstatin: 0.02539
  AUC, modulator BJ.TLCK: 0.02856
  AUC, modulator BJ.atoc: 0.004145
  AUC, modulator BJ.trolox: −0.02026
  AUC, modulator BJ.zVAD: 0.05594
